According to patent US20250154105A1, “POLYCYCLIC COMPOUND AND USE THEREOF” (TYK MEDICINES, INC., priority 2021, published 2025):

Key:
[1] = system: human pleural mesothelioma cells NCI-H226; experiment: Cell anti-proliferation experiment (CCK8), NCI-H226; type: cell-based
How it was run: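 Viability was measured by CCK-8 (3 h, A450) after 3-day treatment with 0.15–333.33 nM compound in 0.1% DMSO medium. Curve-fitted IC50 was based on viability normalised to no-drug and cell-free controls.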

[2] = system: YAP-TEAD; experiment: YAP-TEAD inhibitor activity by Nano luciferase method (8xGTiiC-nLuc reporter in 293T cells); type: cell-based; conditions: Homo sapiens, HEK-293T, 48 hours incubation, read-out: Nano-luciferase detection (IC50)
How it was run: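 293T cells transiently transfected with pGL3B-8xGTiiC-nLuc-CMV-fLuc, seeded 2000 cells/well, then treated 48 h at 37 °C with compounds in 1:3.16 dilution series (top 10,000 nM). Nano luciferase signal read after cell lysis; IC50 from percent of 0 nM control.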

SMILES | IC50 [1] | IC50 [2]
C[C@H](NS(=O)(=O)c1ccc2c(c1)c1nn(C)cc1c(=O)n2-c1ccc(OC(F)(F)F)cc1)c1ccccn1 [Example T-167] | 1 to 5 µM | 1 to 5 µM
C[C@H](C(=O)Nc1ccc2c(c1)c1nn(C)cc1c(=O)n2-c1ccc(C(F)(F)F)cc1)c1ccccn1 [Example T-169] | 1 to 5 µM | 1 to 5 µM
Cn1cc2c(=O)n(-c3ccc(C(F)(F)F)cc3)c3ccc(NC(=O)c4ccccn4)cc3c2n1 [Example T-170] | ≤ 1 µM | ≤ 1 µM
Cn1cc2c(=O)n(-c3ccc(C(F)(F)F)cc3)c3ccc(NC(=O)c4ccccc4)cc3c2n1 [Example T-171] | ≤ 1 µM | ≤ 1 µM
C=CC(=O)Nc1ccc2c(c1)c1nn(C)cc1c(=O)n2-c1ccc(C(F)(F)F)cc1 [Example T-172] | ≤ 1 µM | ≤ 1 µM
CC(=O)Nc1ccc2c(c1)c1nn(C)cc1c(=O)n2-c1ccc(C(F)(F)F)cc1 [Example T-175] | ≤ 1 µM | ≤ 1 µM
Cn1cc2c(=O)n(-c3ccc(C(F)(F)F)cc3)c3ccc(NC(=O)/C=C/CN4CCOCC4)cc3c2n1 [Example T-178] | ≤ 1 µM | ≤ 1 µM
COC(=O)Nc1ccc2c(c1)c1nn(C)cc1c(=O)n2-c1ccc(C(F)(F)F)cc1 [Example T-180] | ≤ 1 µM | ≤ 1 µM
Cn1cc2c(=O)n(-c3ccc(C(F)(F)F)cc3)c3ccc(NC(N)=O)cc3c2n1 [Example T-183] | ≤ 1 µM | ≤ 1 µM
Cn1cc2c(=O)n(-c3ccc(C(F)(F)F)cc3)c3ccc(NC(=O)N4CCCCC4)cc3c2n1 [Example T-185] | ≤ 1 µM | ≤ 1 µM
CC(C)OC(=O)Nc1ccc2c(c1)c1nn(C)cc1c(=O)n2-c1ccc(C(F)(F)F)cc1 [Example T-194] | ≤ 1 µM | ≤ 1 µM
CNS(=O)(=O)c1ccc2c(c1)c1c(cnn1C)c(=O)n2-c1ccc(C(F)(F)F)cc1 [Example T-195] | 1 to 5 µM | 1 to 5 µM
CNS(=O)(=O)c1ccc2c(c1)c1ccccc1c(=O)n2-c1ccc(C(F)(F)F)cc1 [Example T-199] | 1 to 5 µM | 1 to 5 µM
C[C@H](NC(=O)c1ccc2c(c1)c1nn(C)cc1c(=O)n2-c1ccc(OC(F)(F)F)cc1)c1ccccn1 [Example T-229] | ≤ 1 µM | ≤ 1 µM
C[C@H](NC(=O)c1ccc2c(c1)c1nn(C)cc1c(=O)n2-c1ccc(OC(F)(F)F)cc1)c1ccccc1 [Example T-230] | ≤ 1 µM | ≤ 1 µM
C=CC(=O)Nc1ccc2c(c1)c1nn(C)cc1c(=O)n2-c1ccc(OC(F)(F)F)cc1 [Example T-232] | ≤ 1 µM | ≤ 1 µM
C=C(C)C(=O)Nc1ccc2c(c1)c1nn(C)cc1c(=O)n2-c1ccc(C(F)(F)F)cc1 [Example T-236] | ≤ 1 µM | ≤ 1 µM
C/C=C/C(=O)Nc1ccc2c(c1)c1nn(C)cc1c(=O)n2-c1ccc(C(F)(F)F)cc1 [Example T-239] | ≤ 1 µM | ≤ 1 µM
C=CC(=O)Nc1cnc2c(c1)c1nn(C)cc1c(=O)n2-c1ccc(C(F)(F)F)cc1 [Example T-241] | ≤ 1 µM | ≤ 1 µM
C=CC(=O)Nc1cnc2c(c1)c1ccccc1c(=O)n2-c1ccc(C(F)(F)F)cc1 [Example T-242] | ≤ 1 µM | ≤ 1 µM
C[C@H](NC(=O)c1cnc2c(c1)c1cscc1c(=O)n2-c1ccc(C(F)(F)F)cc1)c1ccccn1 [Example T-246] | ≤ 1 µM | ≤ 1 µM
C[C@H](NC(=O)c1cnc2c(c1)C1CCCCC1C(=O)N2c1ccc(C(F)(F)F)cc1)c1ccccn1 (some centres unmarked) [Example T-247] | ≤ 1 µM | ≤ 1 µM
C[C@H](NC(=O)c1ccc2c(c1)c1c(c(=O)n2-c2ccc(C(F)(F)F)cc2)CCC1)c1ccccn1 [Example T-249] | ≤ 1 µM | ≤ 1 µM
C[C@H](NC(=O)c1ccc2c(c1)c1cccnc1c(=O)n2-c1ccc(C(F)(F)F)cc1)c1ccccn1 [Example T-254] | ≤ 1 µM | ≤ 1 µM
Cc1ccc2c(c1)c(=O)n(-c1ccc(C(F)(F)F)cc1)c1ccc(C(=O)N[C@@H](C)c3ccccn3)cc21 [Example T-256] | ≤ 1 µM | ≤ 1 µM

The remaining lines, values ahead:

IC50 [1] | IC50 [2] | SMILES
1 to 5 µM | 1 to 5 µM | C[C@H](NS(=O)(=O)c1ccc2c(c1)c1nn(C)cc1c(=O)n2-c1ccc(S(F)(F)(F)(F)F)cc1)c1ccccn1 [Example T-166]
1 to 5 µM | 1 to 5 µM | C[C@@H](C(=O)Nc1ccc2c(c1)c1nn(C)cc1c(=O)n2-c1ccc(C(F)(F)F)cc1)c1ccccn1 [Example T-168]
1 to 5 µM | 1 to 5 µM | Cn1cc2c(=O)n(-c3ccc(C(F)(F)F)cc3)c3ccc(NC(=O)CCCCl)cc3c2n1 [Example T-173]
≤ 1 µM | ≤ 1 µM | Cn1cc2c(=O)n(-c3ccc(C(F)(F)F)cc3)c3ccc(NC(=O)C(F)(F)F)cc3c2n1 [Example T-174]
≤ 1 µM | ≤ 1 µM | CN(C)C/C=C/C(=O)Nc1ccc2c(c1)c1nn(C)cc1c(=O)n2-c1ccc(C(F)(F)F)cc1 [Example T-176]
≤ 1 µM | ≤ 1 µM | Cn1cc2c(=O)n(-c3ccc(C(F)(F)F)cc3)c3ccc(NC(=O)/C=C/CN4CCCCC4)cc3c2n1 [Example T-177]
≤ 1 µM | ≤ 1 µM | Cn1cc2c(=O)n(-c3ccc(C(F)(F)F)cc3)c3ccc(NC(=O)/C=C/CN4CCCC4)cc3c2n1 [Example T-179]
≤ 1 µM | ≤ 1 µM | CNC(=O)Nc1ccc2c(c1)c1nn(C)cc1c(=O)n2-c1ccc(C(F)(F)F)cc1 [Example T-181]
≤ 1 µM | ≤ 1 µM | CN(C)C(=O)Nc1ccc2c(c1)c1nn(C)cc1c(=O)n2-c1ccc(C(F)(F)F)cc1 [Example T-182]
≤ 1 µM | ≤ 1 µM | Cn1cc2c(=O)n(-c3ccc(C(F)(F)F)cc3)c3ccc(NC(=O)N4CCCC4)cc3c2n1 [Example T-184]
≤ 1 µM | ≤ 1 µM | Cn1cc2c(=O)n(-c3ccc(C(F)(F)F)cc3)c3ccc(NS(=O)(=O)c4ccccc4)cc3c2n1 [Example T-186]
≤ 1 µM | ≤ 1 µM | Cn1cc2c(=O)n(-c3ccc(C(F)(F)F)cc3)c3ccc(NS(=O)(=O)c4ccc(F)cc4)cc3c2n1 [Example T-187]
≤ 1 µM | ≤ 1 µM | CCS(=O)(=O)Nc1ccc2c(c1)c1nn(C)cc1c(=O)n2-c1ccc(C(F)(F)F)cc1 [Example T-188]
≤ 1 µM | ≤ 1 µM | Cc1ccc(S(=O)(=O)Nc2ccc3c(c2)c2nn(C)cc2c(=O)n3-c2ccc(C(F)(F)F)cc2)cc1 [Example T-189]
≤ 1 µM | ≤ 1 µM | Cn1cc2c(=O)n(-c3ccc(C(F)(F)F)cc3)c3ccc(NS(C)(=O)=O)cc3c2n1 [Example T-190]
≤ 1 µM | ≤ 1 µM | Cn1cc2c(=O)n(-c3ccc(C(F)(F)F)cc3)c3ccc(NS(=O)(=O)C(F)(F)F)cc3c2n1 [Example T-191]
≤ 1 µM | ≤ 1 µM | COCCOC(=O)Nc1ccc2c(c1)c1nn(C)cc1c(=O)n2-c1ccc(C(F)(F)F)cc1 [Example T-192]

IC50 [1] | IC50 [2] | SMILES
≤ 1 µM | ≤ 1 µM | CCOC(=O)Nc1ccc2c(c1)c1nn(C)cc1c(=O)n2-c1ccc(C(F)(F)F)cc1 [Example T-193]
≤ 1 µM | ≤ 1 µM | C[C@H](NC(=O)c1ccc2c(c1)c1nn(C)cc1c(=O)n2-c1ccc(S(F)(F)(F)(F)F)cc1)c1ccccn1 [Example T-227]
≤ 1 µM | ≤ 1 µM | C=CC(=O)Nc1ccc2c(c1)c1nn(C)cc1c(=O)n2-c1ccc(S(F)(F)(F)(F)F)cc1 [Example T-231]
≤ 1 µM | ≤ 1 µM | CC(C)/C=C/C(=O)Nc1ccc2c(c1)c1nn(C)cc1c(=O)n2-c1ccc(C(F)(F)F)cc1 [Example T-233]
≤ 1 µM | ≤ 1 µM | CC/C=C/C(=O)Nc1ccc2c(c1)c1nn(C)cc1c(=O)n2-c1ccc(C(F)(F)F)cc1 [Example T-234]
≤ 1 µM | ≤ 1 µM | C=C(F)C(=O)Nc1ccc2c(c1)c1nn(C)cc1c(=O)n2-c1ccc(C(F)(F)F)cc1 [Example T-235]
≤ 1 µM | ≤ 1 µM | C#CC(=O)Nc1ccc2c(c1)c1nn(C)cc1c(=O)n2-c1ccc(C(F)(F)F)cc1 [Example T-237]
≤ 1 µM | ≤ 1 µM | CC#CC(=O)Nc1ccc2c(c1)c1nn(C)cc1c(=O)n2-c1ccc(C(F)(F)F)cc1 [Example T-238]
≤ 1 µM | ≤ 1 µM | C=CC(=O)Nc1cnc2c(c1)c1cscc1c(=O)n2-c1ccc(C(F)(F)F)cc1 [Example T-240]
≤ 1 µM | ≤ 1 µM | C[C@H](NC(=O)c1cnc2c(c1)c1nn(C)cc1c(=O)n2-c1ccc(C(F)(F)F)cc1)c1ccccn1 [Example T-243]
≤ 1 µM | ≤ 1 µM | C[C@H](NC(=O)c1cnc2c(c1)c1ccccc1c(=O)n2-c1ccc(C(F)(F)F)cc1)c1ccccn1 [Example T-244]
≤ 1 µM | ≤ 1 µM | C[C@H](NC(=O)c1cnc2c(c1)c1c(c(=O)n2-c2ccc(C(F)(F)F)cc2)CCC1)c1ccccn1 [Example T-245]
≤ 1 µM | ≤ 1 µM | C[C@H](NC(=O)c1ccc2c(c1)c1ccccc1c(=O)n2-c1ccc(C(F)(F)F)cn1)c1ccccn1 [Example T-248]
1 to 5 µM | 1 to 5 µM | C[C@H](NC(=O)c1ccc2c(c1)c1c(c(=O)n2-c2ccc(C(F)(F)F)cc2)CN(Cc2ccccc2)C1)c1ccccn1 [Example T-251]
≤ 1 µM | ≤ 1 µM | C[C@H](NC(=O)c1ccc2c(c1)c1ncccc1c(=O)n2-c1ccc(C(F)(F)F)cc1)c1ccccn1 [Example T-252]
≤ 1 µM | ≤ 1 µM | Cc1ccc2c(=O)n(-c3ccc(C(F)(F)F)cc3)c3ccc(C(=O)N[C@@H](C)c4ccccn4)cc3c2c1 [Example T-255]
